Data taken from patent US5053337A, “DNA encoding an α2B -adrenergic receptor” (Neurogenetic Corporation, priority 1989, dated 1991).

Tests used:
[1] = target: T1, human α2B -adrenergic receptor (NGC-α2B) (Homo sapiens, UniProt P18089)
T1 sequence (P18089 1-450): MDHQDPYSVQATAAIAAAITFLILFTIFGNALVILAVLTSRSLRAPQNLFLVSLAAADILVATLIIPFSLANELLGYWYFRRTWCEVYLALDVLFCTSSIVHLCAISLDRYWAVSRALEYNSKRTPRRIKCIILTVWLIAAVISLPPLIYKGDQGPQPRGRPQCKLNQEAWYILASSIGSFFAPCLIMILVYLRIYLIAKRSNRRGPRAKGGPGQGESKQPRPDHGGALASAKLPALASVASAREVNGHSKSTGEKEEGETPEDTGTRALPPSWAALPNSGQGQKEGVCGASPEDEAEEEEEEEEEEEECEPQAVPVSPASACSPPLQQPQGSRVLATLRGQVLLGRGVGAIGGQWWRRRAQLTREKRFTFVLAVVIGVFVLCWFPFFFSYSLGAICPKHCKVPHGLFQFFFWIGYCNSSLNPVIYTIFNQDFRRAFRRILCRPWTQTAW

[2] = target: T1, human α2B -adrenergic receptor (NGC-α2B); remark: listed apart in the source
[3] = target: T1, human α2B -adrenergic receptor (NGC-α2B); assay: biochemical

Row | Compound | inhibition [1] | ability to compete with 3H-Rauwolscine for binding (in words) ([1]; pNGC-α2B transfected Cos-7 or Ltk- cell membranes) | nH (Hill Coefficient) [2] | Ki [3]
1 | NCCc1c[nH]c2ccc(O)cc12 [Serotonin] | 15% | inability |  | 
2 | COc1cccc(OC)c1OCCNCC1COc2ccccc2O1 (centres unmarked) [WB-4101] |  |  | 1.5 | 0.055 µM
3 | O=C(c1ccc(F)cc1)C1CCN(CCn2c(=O)[nH]c3ccccc3c2=O)CC1 [Ketanserin] |  |  | 1.21 ± 0.12 | 
